From ChEMBL document CHEMBL1134216, “Synthesis, modelling and NK1 antagonist evaluation of a non-rigid cyclopropane-containing analogue of CP-99,994” (Bioorg Med Chem Lett, 2001)
pKi: −log10 of the molar value.

Molecular target: Substance-P receptor (Homo sapiens, UniProt P25103)
Assay: Binding affinity towards Tachykinin receptor 1 expressed in CHO cells using [3H][Pro9]-SP as radioligand
Assay type: cell-based

Substance-P receptor, sequence (P25103 whole entry): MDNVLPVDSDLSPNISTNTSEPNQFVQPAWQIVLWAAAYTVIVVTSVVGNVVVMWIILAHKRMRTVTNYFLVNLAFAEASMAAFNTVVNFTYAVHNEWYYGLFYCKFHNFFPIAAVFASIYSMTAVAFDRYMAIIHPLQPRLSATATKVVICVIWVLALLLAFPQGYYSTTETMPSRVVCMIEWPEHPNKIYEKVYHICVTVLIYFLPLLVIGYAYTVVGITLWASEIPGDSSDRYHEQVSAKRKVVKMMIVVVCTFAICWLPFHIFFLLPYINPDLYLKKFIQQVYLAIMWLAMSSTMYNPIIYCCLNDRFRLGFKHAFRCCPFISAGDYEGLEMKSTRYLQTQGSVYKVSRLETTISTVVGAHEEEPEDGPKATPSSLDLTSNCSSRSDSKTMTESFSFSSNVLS

Question: `CNC(c1ccccc1)C1(NCc2ccccc2OC)CC1` (configuration not stated) was tested. Which pKi did it give?
Answer: The pKi was 6.82.

Question: How did the pKi turn out when `CNC(c1ccccc1)C1(NCc2cc(C(F)(F)F)cc(C(F)(F)F)c2)CC1` (racemic) was run?
Answer: Its pKi is 6.21.
